According to patent US20110009268A1, “IPBC-CONTAINING COACERVATES” (priority 2006, published 2011):

Tested on: mold fungi
Assay: Coatings test: mold resistance of emulsion paint (formula A)
Description: The substance under test was incorporated into the test paint, at the stated concentration, using a dissolver.
The procedure for testing the emulsion paints for mold resistance was as follows:
The coating material under test was applied to both sides of a suitable substrate. In order to obtain realistic results, one portion of the test specimens was leached with running water (24 h, 20° C.) prior to the test for mold resistance; a further portion was treated with a warm stream of fresh air (7 days, 40° C.).
The samples thus prepared were then placed on an agar nutrient medium, and both samples and nutrient medium were contaminated with fungal spores. Inspection took place after 2-3 weeks' storage (29±1° C., 80-90% relative humidity).
Contamination was carried out using spores of the following mold fungi which are known to destroy coating materials or which are frequently encountered on coatings:
Alternaria tennis Aspergillus flavus Aspergillus niger Aspergillus ustus Cindosporum herbarum Paecilomyces variotii Penicillum citrium Aureobasidium pullulans Stachybotrys chartarum

CCCCNC(=O)OCC#CI [pure IPBC, 3-iodo-2-propynyl butylcarbamate]
mold resistance of coating (0.08% based on solids content of the emulsion paint, without leaching and wind tunnel exposure): mold-resistant | activity of coating against mold (0.16% based on solids content of the emulsion paint, after leaching and wind tunnel exposure): active
